Laboratory results published in patent US11312925B2, “Pyrithione preservative system and C1-C12 ethoxylated alcohol in hard surface cleaning products” (ECOLAB USA INC., priority 2015, dated 2022).

Tests used:
[1] = Compatibility in solution with 4500 MW polyacrylic acid polymer under acidic conditions; assay type: physicochemical
[2] = tested on: Bacterial cocktail (Staphylococcus aureus ATCC 6538, Escherichia coli ATCC 11229, Enterobacter aerogenes ATCC 13048, Burkholderia cepacia ATCC 25416 …); experiment: Preservative test over 28 days in 7 and 18.5 grain water, bacterial counts (Example 5); assay type: cell-based; settings: 140 ppm with 2000 ppm monosodium citrate versus 300 ppm with no added acidity
Description: (§1) For USP bacteria there must be no less than 2.0 log reduction from the initial inoculated count at 14 days, and no increase from the 14 days' count at 28 days. A result of “no increase” is defined as not more than 0.5 log higher than previous value. For additional standards examined the preservation capability of a composition is evaluated over a predetermined time (as identified in the Example) and the inhibition or reduction of microbial growth is assessed, without the requirement for complete elimination of the entire microbial inoculum.
Formulations of pyrithione preservatives were evaluated in existing solid rinse aid formulations for USP and commercial standards, modified to incorporate field isolate from a sump solution. The survival of both bacterial cocktail and fungal cocktails (as described in prior Example) were monitored over 28 days.
The bacteria inoculum was made up of equal parts of the organisms listed (incubated in tryptone glucose extract agar at 32° C. for 3 days):

[3] = tested on: Yeast and mold cocktail (Canidia albicans ATCC 10231, Saccharomyces cerevisiae ATCC 834, Aspergillus niger ATCC 16404); experiment: Preservative test over 28 days in 7 and 18.5 grain water, yeast and mold counts (Example 5); assay type: cell-based; settings: 140 ppm with 2000 ppm monosodium citrate versus 200 ppm bis (3-aminopropyl) dodecylamine in hard water
Description: as §1
The survival of both bacterial cocktail and fungal cocktails (as described in prior Example) were monitored over 28 days.
The yeast and mold inoculum was made up of equal parts of the organisms listed (incubated in sabourand agar at 26° C. for 3 days):

[4] = tested on: yeast and mold inoculum cocktail (Canidia albicans ATCC 10231, Saccharomyces cerevisiae ATCC 834, Aspergillus niger ATCC 16404); settings: over 3 weeks in sump solution; compared with the other evaluated preservatives; FIG. 1
Description: In order to identify preservative systems for replacing Kathon CG-ICP (isothiazolinone blend) from solid rinse aid formulations, various potential preservatives were evaluated.
For performance reasons, the preservatives were tested with the 4500 MW polyacrylic acid polymer and 10% level of monosodium citrate or fumaric acid.
The test temperature was ambient (20° C.-26° C.) and exposure times were 0, 7, 14, 28 and 35 days.
The preservatives were formulated at their upper concentration levels before triggering the use of personal protective equipment and measured fungi recovered and pH.

Compound	behaviour in solution with the 4500 MW polyacrylic acid polymer [1]	inhibition of microorganisms (especially bacteria), comparison [2]	preservation performance, comparison [3]	impact at reducing fungi (mean log fungi reduction) [4]
CCCCCCCCCCCCN(CCCN)CCCN [bis (3-aminopropyl) dodecylamine, Bis (3-aminopropyl) dodecylamine]	precipitate out of solution			
On1ccccc1=S.[Na] [sodium pyrithione, 1-hydroxy-2(1H)-pyridinethione, sodium salt]		much more effective at inhibiting microorganisms	outperformed	greatest impact at reducing fungi
